In US8394828B2 (Janssen Pharmaceutica, NV, priority 2003, dated 2013):
Where two headings read alike, the source gives them in different places.

Tests used:
human VR1 [1] = target: T1, human VR1 (Homo sapiens, UniProt Q8NER1); assay: Human VR1 functional assay (intracellular Ca++, FLIPR, capsaicin challenge); assay type: cell-based
T1 construct: expressed in transfected cells; host or cells: HEK293
Protocol: The functional activity of the test compounds was determined by measuring changes in intracellular calcium concentration using a Ca^++-sensitive fluorescent dye and FLIPR™ technology.
EC50 or IC50 values were determined from dose-response studies.

human VR1 [2] = target: T1, human VR1; assay: Human VR1 [3H] RTX binding assay; settings: for inhibition at 1 µM: compound at 1 μM; for Ki: hVR1
Protocol: Compounds of the present invention were tested for their ability to inhibit the binding of [^3H] RTX to hVR1 receptors in a [^3H]
HEK293 cells were transfected with human VR1 vanilloid receptors and washed with Hank's Balanced Salt Solution, dissociated with cell dissociation buffer (Sigma), and then centrifuged at 1000×g for 5 min. […] The pelleted membranes were kept in an −80° C. freezer.
Approximately 120 μg protein/ml from membranes were incubated with indicated concentrations of [^3H] RTX in 0.5 ml of the HEPES buffer (pH 7.4) containing 0.25 mg/mL fatty acid-free bovine serum albumin at 37° C. for 60 min. […] The tip of the microcentrifuge tube containing the pellet was cut off. Bound radioactivity was quantified by scintillation counting. Non-specific binding was tested in the presence of 200 nM unlabeled RTX.

[3] = hVR1, capsaicin challenge, read-out: FLIPR functional assay IC50 hVR1
[4] = 3H-RTX binding, read-out: 3H-RTX binding assay Ki hVR1
[5] = FLIPR functional assay IC50 hVR1 60 min, 60 min

T1 sequence (Q8NER1 whole entry): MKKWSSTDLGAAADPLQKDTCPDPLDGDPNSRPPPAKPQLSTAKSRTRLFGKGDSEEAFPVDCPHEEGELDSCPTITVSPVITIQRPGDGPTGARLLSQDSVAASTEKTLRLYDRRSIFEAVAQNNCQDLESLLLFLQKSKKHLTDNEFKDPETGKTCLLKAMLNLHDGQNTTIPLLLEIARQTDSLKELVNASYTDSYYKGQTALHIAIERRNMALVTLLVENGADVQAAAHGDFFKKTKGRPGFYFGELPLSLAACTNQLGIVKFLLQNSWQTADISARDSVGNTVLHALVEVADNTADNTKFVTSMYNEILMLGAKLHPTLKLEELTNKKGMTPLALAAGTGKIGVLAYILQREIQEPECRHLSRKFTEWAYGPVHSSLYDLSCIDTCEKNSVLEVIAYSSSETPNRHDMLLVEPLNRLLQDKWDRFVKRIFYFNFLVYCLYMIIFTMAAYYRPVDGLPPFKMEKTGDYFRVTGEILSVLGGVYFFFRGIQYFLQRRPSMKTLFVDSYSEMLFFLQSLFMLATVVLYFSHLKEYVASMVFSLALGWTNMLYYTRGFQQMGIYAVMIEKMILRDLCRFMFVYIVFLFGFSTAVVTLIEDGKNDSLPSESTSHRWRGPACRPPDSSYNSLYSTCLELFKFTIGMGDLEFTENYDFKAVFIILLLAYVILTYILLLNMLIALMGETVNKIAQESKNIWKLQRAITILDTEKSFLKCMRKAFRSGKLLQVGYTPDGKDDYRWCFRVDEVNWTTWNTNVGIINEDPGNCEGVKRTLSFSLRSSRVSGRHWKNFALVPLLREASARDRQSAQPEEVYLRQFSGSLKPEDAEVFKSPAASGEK

Row | Structure (SMILES) | IC50 (human VR1 [1]; [3]) | inhibition at 1 µM (human VR1 [2]; 3H-RTX binding) | Ki (human VR1 [2]; [4]) | IC50 (human VR1 [1]; [5]) | Ki (human VR1 [2]; 3H-RTX binding assay Ki hVR1, 3H-RTX binding) | IC50 (human VR1 [1]; read-out: FLIPR functional assay IC50 hVR1 60 min, 60 min)
1 | CCCCCN(C)c1ccc(C(=O)Nc2cnc3ccccc3c2)cc1C [3-Methyl-4-(methyl-pentyl-amino)-N-quinolin-3-yl-benzamide] | 54 nM | 107% | 37.9 nM |  |  | 
2 | CCCCCNc1ccc(C(=O)Nc2cnc3ccccc3c2)cc1C [3-Methyl-4-pentylamino-N-quinolin-3-yl-benzamide] | 780 nM | 81% | 73.5 nM | 12 nM |  | 
3 | CCCCCNc1cccc(C(=O)Nc2cnc3ccccc3c2)c1 [3-Pentylamino-N-quinolin-3-yl-benzamide] | 2700 nM | 12% |  |  |  | 
4 | CN(CCc1ccccc1)c1ccc(CCC(=O)Nc2cnc3ccccc3c2)cc1 [3-[4-(Methyl-phenethyl-amino)-phenyl]-N-quinolin-3-yl-propionamide] | 180 nM | 90% | 192 nM |  |  | 
5 | CCCCC(C)(C)c1cc(OC)c(CCC(=O)Nc2cnc3ccccc3c2)c(OC)c1 [3-{4-(1,1-Dimethyl-pentyl)-2,6-dimethoxy-phenyl}-N-quinolin-3-yl-propionamide] | 1000 nM | 96% |  |  | 10.6 nM | 
6 | CCC(C)(C)c1cc(OC)c(CCC(=O)Nc2cnc3ccccc3c2)c(OC)c1 [3-{4-(1,1-Dimethyl-propyl)-2,6-dimethoxy-phenyl}-N-quinolin-3-yl-propionamide] | 320 nM | 93% | 52 nM |  |  | 
7 | CC(C)(c1ccc(CCC(=O)Nc2cnc3ccccc3c2)cc1)C1CCCCC1 [3-{4-(1-Cyclohexyl-1-methyl-ethyl)-phenyl}-N-quinolin-3-yl-propionamide] | 570 nM |  | 31.5 nM |  |  | 
8 | CN(Cc1ccccc1)c1ccc(CCC(=O)Nc2cnc3ccccc3c2)cc1 [3-{4-(Benzyl-methyl-amino)-phenyl}-N-quinolin-3-yl-propionamide] | 354 nM |  | 111 nM |  |  | 
9 | CN(c1ccc(C=CC(=O)Nc2cnc3ccccc3c2)cc1)C1CCCCC1 [3-{4-(Cyclohexyl-methyl-amino)-phenyl}-N-quinolin-3-yl-acrylamide] |  | 91% | 131 nM | 400 nM |  | 
10 | CN(c1ccc(CCC(=O)Nc2cnc3ccccc3c2)cc1)C1CCCCC1 [3-{4-(Cyclohexyl-methyl-amino)-phenyl}-N-quinolin-3-yl-propionamide] | 3900 nM | 51% | 1170 nM |  |  | 
11 | CCCN(C)c1ccc(CCC(=O)Nc2cnc3ccccc3c2)cc1 [3-{4-(Methyl-propyl-amino)-phenyl}-N-quinolin-3-yl-propionamide] | 500 nM |  | 196 nM |  |  | 
12 | CC1CN(c2ccc(C(=O)Nc3cnc4ccccc4c3)cc2)CC(C)O1 (stereo not shown) [4-(2,6-Dimethyl-morpholin-4-yl)-N-quinolin-3-yl-benzamide] | 10000 nM | 18% |  |  |  | 
13 | CC1CC(C)CN(c2ccc(C(=O)Nc3cnc4ccccc4c3)cc2)C1 (stereo not shown) [4-(3,5-Dimethyl-piperidin-1-yl)-N-quinolin-3-yl-benzamide] | 1800 nM | 91% | 86.1 nM |  |  | 
14 | O=C(Nc1cnc2ccccc2c1)c1ccc(N2CC3CCCC(C3)C2)cc1 [4-(3-Aza-bicyclo{3.3.1}non-3-yl)-N-quinolin-3-yl-benzamide] | 170 nM | 99% | 5.15 nM | 127 nM |  | 
15 | O=C(Nc1cnc2ccccc2c1)c1ccc(N2CCN(C(=O)Cc3ccccc3)CC2)cc1 [4-(4-Phenylacetyl-piperazin-1-yl)-N-quinolin-3-yl-benzamide] | 10000 nM |  | 100000 nM |  |  | 
16 | CCCC1CCN(c2ccc(C(=O)Nc3cnc4ccccc4c3)cc2)CC1 [4-(4-Propyl-piperidin-1-yl)-N-quinolin-3-yl-benzamide] | 16000 nM | 92% | 103 nM | 170 nM |  | 
17 | CC(=O)N(c1ccc(C(=O)Nc2cnc3ccccc3c2)cc1)C1CCCCC1 [4-(Acetyl-cyclohexyl-amino)-N-quinolin-3-yl-benzamide] | 10000 nM | 1% |  |  |  | 

Row | Structure (SMILES) | IC50 (human VR1 [1]; [3]) | inhibition at 1 µM (human VR1 [2]; 3H-RTX binding) | Ki (human VR1 [2]; [4]) | IC50 (human VR1 [1]; [5]) | Ki (human VR1 [2]; 3H-RTX binding assay Ki hVR1, 3H-RTX binding) | IC50 (human VR1 [1]; read-out: FLIPR functional assay IC50 hVR1 60 min, 60 min)
18 | CN(Cc1ccccc1)c1ccc(C(=O)Nc2cnc3ccccc3c2)cc1 [4-(Benzyl-methyl-amino)-N-quinolin-3-yl-benzamide] | 2300 nM | 98% | 75.3 nM | 370 nM |  | 
19 | CN(c1ccc(C(=O)Nc2cnc3ccccc3c2)cc1)C1CCCCCC1 [4-(Cycloheptyl-methyl-amino)-N-quinolin-3-yl-benzamide] | 400 nM | 100% | 14 nM |  |  | 
20 | CCN(c1ccc(C(=O)Nc2cnc3ccccc3c2)cc1)C1CCCCC1 [4-(Cyclohexyl-ethyl-amino)-N-quinolin-3-yl-benzamide] | 300 nM |  | 12.6 nM |  |  | 
21 | Cc1cc(C(=O)Nc2cnc3ccccc3c2)ccc1N(C)C1CCCCC1 [4-(Cyclohexyl-methyl-amino)-3-methyl-N-quinolin-3-yl-benzamide] | 560 nM |  | 22 nM | 23 nM |  | 
22 | CN(C(=O)c1ccc(N(C)C2CCCCC2)cc1)c1cnc2ccccc2c1 [4-(Cyclohexyl-methyl-amino)-N-methyl-N-quinolin-3-yl-benzamide] | 2000 nM | 12% |  |  |  | 
23 | CCCN(c1ccc(C(=O)Nc2cnc3ccccc3c2)cc1)C1CCCCC1 [4-(Cyclohexyl-propyl-amino)-N-quinolin-3-yl-benzamide] | 10000 nM |  | 84.6 nM |  |  | 
24 | Cc1cc(C(=O)Nc2cnc3ccccc3c2)ccc1N(C)CC1CCCCC1 [4-(Cyclohexylmethyl-methyl-amino)-3-methyl-N-quinolin-3-yl-benzamide] | 10000 nM |  | 68.3 nM |  |  | 
25 | CN(CC1CCCCC1)c1ccc(C(=O)Nc2cnc3ccccc3c2)cc1 [4-(Cyclohexylmethyl-methyl-amino)-N-quinolin-3-yl-benzamide] | 1700 nM | 104% | 15.7 nM |  |  | 
26 | CN(c1ccc(C(=O)Nc2cnc3ccccc3c2)cc1)C1CCCC1 [4-(Cyclopentyl-methyl-amino)-N-quinolin-3-yl-benzamide] | 185 nM |  | 27.9 nM |  |  | 
27 | CCCCCC=CCCCN(C)c1ccc(C(=O)Nc2cnc3ccccc3c2)cc1 [4-(Dec-4-enyl-methyl-amino)-N-quinolin-3-yl-benzamide] |  | 104% | 23.1 nM | 66 nM |  | 
28 | CCC=CCCCN(C)c1ccc(C(=O)Nc2cnc3ccccc3c2)cc1 [4-(Hept-4-enyl-methyl-amino)-N-quinolin-3-yl-benzamide] | 1900 nM | 104% | 29.8 nM | 46 nM |  | 
29 | CCCCN(C)c1ccc(C(=O)Nc2cnc3ccccc3c2)cc1 [4-(Methyl-butyl-amino)-N-quinolin-3-yl-benzamide] | 786 nM | 97% | 83.3 nM | 100 nM |  | 
30 | CCC=CCCCCCN(C)c1ccc(C(=O)Nc2cnc3ccccc3c2)cc1 [4-(Methyl-non-6-enyl-amino)-N-quinolin-3-yl-benzamide] |  | 101% | 36.5 nM | 48 nM |  | 
31 | CCCCCCCCN(C)c1ccc(C(=O)Nc2cnc3ccccc3c2)cc1 [4-(Octyl-methyl-amino)-N-quinolin-3-yl-benzamide] |  | 105% | 14.7 nM |  |  | 190 nM
32 | CCCN(CCc1ccccc1)c1ccc(C(=O)Nc2cnc3ccccc3c2)cc1 [4-(Phenethyl-propyl-amino)-N-quinolin-3-yl-benzamide] |  | 105% | 71.6 nM | 360 nM |  | 
33 | O=C(Nc1cnc2ccccc2c1)c1ccc(N2CCCCCCC2)cc1 [4-Azocan-1-yl-N-quinolin-3-yl-benzamide] | 290 nM |  | 18.5 nM |  |  | 
34 | O=C(Nc1cnc2ccccc2c1)c1ccc(N2CCCCCCCC2)cc1 [4-Azonan-1-yl-N-quinolin-3-yl-benzamide] | 92 nM |  | 11.8 nM |  |  | 
